In US20260053767A1, “Hepatoprotective Compositions And Methods” (Jemyll, Ltd., priority 2022, published 2026):

Legend:
Assay type in all cases: cell-based
[1] = system: endothelial cells (EOMA cells); test: Total antioxidant capacity in endothelial cells; details: 24 hours, in the presence of hydrogen peroxide, p=0.001
Excerpt: (§1) To that end, the inventors used endothelial cells (EOMA cells) and liver cells (AML-12 cells) in vitro and quantified various markers in response to exposure of the cells to environmental challenge in the presence and absence of DDA at low concentrations. Unless indicated otherwise, the DDA concentration in the in vitro experiments was 5 mcg per microliter. More specifically, the inventors measured p-H2AX protein levels as a marker for DNA damage, PGC-1α protein levels as a marker for mitochondrial biogenesis, NAMPT enzyme levels as a marker for potential for NAD+ production, and total antioxidant capacity as a marker of cellular health. In addition, the inventors also measured global SIRT activity as a gauge of activity for all SIRT enzymes, and in particular SIRT1 enzyme levels as markers for autophagy and various beneficial processes associated with a caloric restricted diet, and SIRT3 levels as markers for mitochondrial function and longevity.
(§2) In yet a further series of experiments, the inventors also sought to confirm whether or not DDDA would have a modulatory effect in endothelial cells using the same markers and experimental conditions as noted above.
With respect to antioxidant capacity, FIG. 12 depicts exemplary results. […] N=5-6 plates per treatment.

PGC-1α = PGC-1α in endothelial cells; details: EOMA endothelial cells
Excerpt: as §1, §2
On the other hand, where endothelial cells were exposed to DDDA, there was a significant difference in NAMPT enzyme levels as is exemplarily depicted in FIG. 15.

[2] = system: primary human hepatocytes; test: In vitro citrate uptake; details: citrate 150 μM; for citrate uptake: vs untreated cells
Method: Isolation of human primary hepatocytes: Tissue obtained during percutaneous liver biopsy, was diced (<3 mm) and washed in HBSS to remove excess blood. Tissue was then transferred to a tube containing pre-warmed EGTA buffer (HBSS, 0.5 mM EGTA, 0.5% fatty acid free bovine serum albumin (BSA)) and agitated (100 rpm) in a water bath with shaking bed for 10 min, 37° C. After three washes, to remove the remaining blood and EGTA, the tissue was placed in pre-warmed digestion buffer (HBSS, 0.05% collagenase IV, 0.5% fatty acid free BSA, 10 mM CaC12) and agitated (100 rpm) in a water bath with shaking bed for 30 min, 37° C. The digested tissue was filtered through 100 μm cell strainer while the remaining tissue was again digested in fresh digestion buffer (20). Cell suspensions were pooled and centrifuged at 80 g for 5 min, 4° C. and the supernatant discarded. Cells were grown until confluent and used for citrate uptake analysis.
In vitro Citrate Uptake: Primary human hepatocytes were incubated with or without Dodecanedioic acid, sodium salt (0.1-0.25-0.5-1-1.5% w/vol) for 30 minutes. Following the incubation step, citrate was added at a final concentration of 150 μM for 40 minutes. At the end of the stimulation citrate uptake was assessed by a commercial Citrate Assay Kit and data analyzed with Varioskan LUX multimode microplate reader.

O=C(O)CCCCCCCCCCC(=O)O [DDDA, dodecanedioic acid]
cellular total antioxidant capacity [1]: maintained | PGC-1α (PGC-1α): did not show a statistically significant difference | citrate uptake ([2]; C12 1% (v/w)): significant decrease | citrate uptake ([2]; C12 1.5% (v/w)): significant decrease | citrate uptake (figure legend) ([2]; C12 0.1-1.5% v/w): inhibits citrate uptake
